Measured values published in patent US10696686B2, “Herbicidally active (alkynyl-phenyl)-substituted cyclic dione compounds and derivatives thereof” (Syngenta Limited, priority 2013, dated 2020).

Experiments:
Assay type in all cases: in vivo
[1] = system: Brachiaria decumbens (BRADC); assay: Biological Example 3 glasshouse assay using various adjuvant systems, post-emergence foliar spray; conditions: 8 g/ha
Experimental: Post-emergence foliar spray application, 200 L/ha, usually one or two replicates for the weeds (depending on application rate), and two replicates for soybean.
Standard warm conditions (tropical), in glasshouse. Specifically, the glasshouse bay conditions are 24° C./18° C. day/night; 16/8 hours light/dark; 65% humidity.
The herbicidal application takes place at the following growth stages for plants which include inter alia one or more of the following plants (usually the herbicidal application takes place on at least the following plants: DIGSA, ELEIN, SETFA, ZEAMX, GLXMA Nikko, and GLXMA TMG133, and often also either BRADC or BRAPP):
Brachiaria decumbens (BRADC)—growth stage (GS) 12 or 13 (or GS 12)—or, if BRADC is not used, then usually Brachiaria platyphylla (BRAPP)—growth stage 12 or 13
Each test compound is applied with one of the following adjuvant systems (all percentages are final concentrations in the aqueous spray mixture):
Adjuvant system 1: 0.5% v/v Adigor™ *, 1.0% v/v AMS (ammonium sulphate) and 12.5% v/v IPA (isopropyl alcohol).
Adjuvant system 1A: 0.5% v/v Adigor™ * and 12.5% v/v IPA (isopropyl alcohol).
CAS Registry no. 166412-78-8), and is usually available from BASF. “Isononyl” in this context is thought to mean a mixture of two or more branched isomers of C9H19. […] A visual assessment of the % herbicidal damage is made 7 and 14 Days After herbicide Application (DAA) (or, in a minority of cases, 7 and 15 DAA), and the results are recorded as % visual herbicidal damage where 0%=no damage to plants and 100%=plant totally killed. *** Adjuvant system=either Adigor™ or Hexamoll DINCH™ or tris-(2-ethylhexyl) phosphate each at 0.5% v/v, and 12.5% v/v IPA (isopropyl alcohol), and 1.0% v/v AMS (ammonium sulphate); or 0.5% v/v Adigor™ and 12.5% v/v IPA (isopropyl alcohol); all percentages are final concentrations in the aqueous spray mixture. […]

[2] = system: Setaria faberi (SETFA); assay: Biological Example 2 glasshouse assay (IF50 formulation, X-77), post-emergence; conditions: 14 or 15 DAA
Experimental: (§1) Seeds of a variety of monocotyledonous and dicotyledonous test plants are sown in standard soil in pots. The plants are cultivated for one day (for pre-emergence) or for about 12 days (range=10-13 days) (for post-emergence) under controlled conditions in a glasshouse (warm climate species at 24/18° C., cool climate species at 20/16° C., both at day/night; 16 hours light; 65% humidity). An “instant formulation”, known as the “IF50”, containing 50 g/litre (i.e. 5% w/v) of the “technical” (i.e. unformulated) active ingredient is prepared by dissolving the active ingredient in a mixture of organic solvents and emulsifier, details of which are provided in the Table below. This IF50 is then mixed with a small, variable amount of acetone to aid dissolution, before addition of a 0.2% v/v aqueous solution of the adjuvant X-77 (which is a mixture of alkyl aryl polyoxyethylene glycols and free fatty acids in isopropanol, CAS Registry number 11097-66-8), as the aqueous diluent, to form an aqueous spray solution which contains a predetermined concentration of the active ingredient (which varies depending on the application rate of the active ingredient to the plants) and 0.2% v/v of the adjuvant X-77. This aqueous spray solution is then sprayed onto the plants, after one day's cultivation (for pre-emergence) or after about 12 days' cultivation (for post-emergence).
(§2) The test plants are then grown on, in a glasshouse (greenhouse) under controlled conditions (at either 24/18° C. or 20/16° C. (day/night) as mentioned above; 16 hours light; 65% humidity) and are watered twice daily. Either 14 or 15 days after application of the herbicide (14 or 15 DAA) (for post-emergence), or 20 days after application of the herbicide (20 DAA) (for pre-emergence), the test plants are evaluated visually, and an assessed percentage phytotoxicity score is given for each herbicidal application on each plant species (where 100%=total damage to plant; 0%=no damage to plant). Some of the typical test plants are as follows: Cool climate crop plants: Triticum aestivum (TRZAW, winter wheat), Brassica napus (BRSNN, rape, also called oilseed rape or rapeseed), Beta vulgaris (BEAVA, sugarbeet). Warm climate crop plants: Glycine max (GLXMA, soybean). Cool climate (“cool season”) grassy monocotyledonous weeds: Alopecurus myosuroides (ALOMY), Avena fatua (AVEFA), Lolium perenne (LOLPE), Poa annua (POAAN), Bromus tectorum (BROTE). Warm climate (“warm season”) grassy monocotyledonous weeds: Setaria faberi (SETFA), SORVU (Sorghum bicolor (L.) Moench ssp. Bicolor, or Sorghum vulgare Pers.), Digitaria sanguinalis (DIGSA), Echinochloa crus-galli (ECHCG), Brachiaria plantaginea (BRAPL), Zea mays (ZEAMX, corn, maize, e.g. volunteer corn), Panicum miliaceum (PANMI).

[3] = system: Beta vulgaris (BEAVA, sugarbeet); assay: as above; conditions: for percentage phytotoxicity score BEAVA: post-emergence, 14 or 15 DAA
Experimental: as §1, §2

Compound	percentage control of (phytotoxicity on) Brachiaria decumbens (BRADC) ([1]; 14 DAA, adjuvant 0.5% v/v Adigor + 12.5% v/v IPA) [%]	percentage phytotoxicity score SETFA ([2]; 125 g/ha (rate taken from row order)) [%]	percentage phytotoxicity score SETFA ([2]; 250 g/ha (rate taken from row order)) [%]	phytotoxicity against sugarbeet (in words) ([3]; e.g. when applied at 30 g/ha post-emergence, see Biological Example 2)	percentage phytotoxicity score BEAVA ([3]; 125 g/ha) [%]	percentage phytotoxicity score BEAVA ([3]; 250 g/ha) [%]	percentage control of (phytotoxicity on) Brachiaria decumbens (BRADC) ([1]; 14 DAA (A11: 14 or 15 DAA), adjuvant 0.5% v/v Adigor + 1.0% v/v AMS + 12.5% v/v IPA) [%]
C#CCC1CC(=O)C(c2c(F)cc(C#CC)cc2OC)C1=O (stereo not shown) [Compound A8, 2-(2-fluoro-6-methoxy-4-prop-1-ynyl-phenyl)-4-prop-2-ynyl-cyclopentane-1,3-dione]	0	90	100	low or reasonably low phytotoxicity	10	10	–
CC#Cc1cc(F)c(C2C(=O)CC(CCSC)CC2=O)c(OC)c1 (stereo not shown) [Compound A11]	–	–	–	–	–	–	0
